Results reported in patent publication US20240122179A1, “AUXINIC HERBICIDES AND METHODS OF USE THEREOF” (CORTEVA AGRISCIENCE LLC, priority 2021, published 2024).
Where two headings read alike, the source gives them in different places.

Tests used:
Assay in all cases: Postemergence herbicide evaluation, percent reduction in plant size vs untreated control, 21 days after treatment
[1] = tested on: Ambrosia artemisiifolia (AMBEL); type: in vivo, Ambrosia artemisiifolia (common ragweed); details: post-emergence, 504 h, AMBEL, postemergence, read-out: Control/Injury; for pest or weed control at 140 g/ha: rate 140 g ae/ha; for pest or weed control at 280 g/ha: rate 280 g ae/ha
Procedure: (§1) Plants were grown in a soil media composed of 90% by volume Promix BX (Premier Tech Horticulture, Quakertown, PA) and 10% Profile Greens Grade (Profile Products LLC, Buffalo Grove, IL). Promix BX contains approximately 83% Sphagnum Peat Moss, 13% Perlite, 5% vermiculite, and proprietary amounts of limestone, starter fertilizer, and wetting agent. Profile Greens Grade is a sand-sized granule formed from calcining illite and montmorillonite clay. Several seeds of each species were planted in 10 cm square pots and top watered twice daily. Plant material was propagated in a warm greenhouse with temperature ranging from 25 to 28° C. and 50 to 60% relative humidity at the Corteva Global Headquarters (Indianapolis, Indiana, USA). Natural light was supplemented with 1000-watt metal halide overhead lamps with an average illumination of 500 μE m^−2 s^−1 photosynthetic active radiation for 16 consecutive hours each day. Plants were top-watered prior to herbicide application and sub-watered after herbicide application.
(§2) Appropriate amounts of test materials were weighed out into glass vials in their technical form to deliver either 140 or 280 g acid equivalent (ae)/ha. The samples were dissolved in 3 ml of Solvent 1. Solvent 1 is 97% acetone and 3% dimethyl sulfoxide and serves as a general-purpose solvent (GPS) for dissolving technical materials. […] The samples were then diluted to their final concentration using 17 ml of solvent 2 for a total of 20 ml of spray solution. Solvent 2 contains 41.58% GPS, 45.53% water, 11.88% isopropyl alcohol, 0.99% crop oil concentrate and 0.02% Trition X-155 surfactant. All percentages are listed on a volume basis. Dicamba diglycolamine was applied as a formulated herbicide, Clarity™ and diluted with solvent 2 to compare all materials in the same spray solution.
(§3) Herbicide applications were made to 3 to 4 replicates of each plant species at the 2 to 8 leaf stage, depending on the species. Treatments were applied with a research track-sprayer (Generation III Research Sprayer manufactured by DeVries Manufacturing in Hollandale, MN, USA) calibrated to deliver a spray volume of 187 L/ha. The track-sprayer was fitted with an 8003E nozzle from Spray Systems Company (North Avenue and Schmale Road, P.O. Box 7900, Wheaton, IL 60187), and used a spray pressure of 276 kPa pressure and a speed of 3.1 km/h. The nozzle height was 46 cm above the plant canopy. The experimental design used for the trials was a randomized complete block with 3 or 4 replications per treatment. After application, plants were placed on carts according to the randomization and returned to the greenhouse. Plants were sub-watered after treatment with Indianapolis city water or fertilized three times a week with a commercial fertilizer solution (Jack's Professional 15-5-15 4 Ca 2 Mg fertilizer (manufactured by JR PETERS INC., 6656 Grant Way, Allentown, PA 18106; www.jrpeters.com). Percent visual control assessments were made on a scale of 0 to 100% (where 0 was no control and 100 was complete plant death) at 7, 14, and 21 days after treatment.
(§4) In conformity with the methods outlined in Example 49, the effect of representative experimental compounds on the growth of Ambrosia artemisiifolia (AMBEL), (common ragweed), was determined at 2 different levels (respectively, 140 and 280 g acid equivalent (ae)/ha) of the experimental actives tested. Plants were treated with one of the compounds, a control plant was not treated. Twenty-one days after treatment, the plants were measured. The data is present as a percent reduction in plant size relative to the untreated control.

Amaranthus rudis (AMATA) = type: in vivo, Amaranthus rudis (tall water hemp); details: Amaranthus tuberculatus, post-emergence, 504 h, AMATA, postemergence, read-out: Control/Injury; for pest or weed control at 140 g/ha: rate 140 g ae/ha; for pest or weed control at 280 g/ha: rate 280 g ae/ha
Procedure: as §1, §2, §3
as §4, with “Amaranthus rudis (AMATA), common name tall water hemp,” for “Ambrosia artemisiifolia (AMBEL), (common ragweed),”

Kochia scoparia (KCHSC) = type: in vivo; details: Bassia scoparia, post-emergence, 504 h, KCHSC, postemergence, read-out: Control/Injury; for pest or weed control at 140 g/ha: rate 140 g ae/ha; for pest or weed control at 280 g/ha: rate 280 g ae/ha
Procedure: as §1, §2, §3
as §4, with “Kochia scoparia (KCHSC)” for “Ambrosia artemisiifolia (AMBEL), (common ragweed),”

[2] = tested on: Conyza canadensis (L.) (ERICA); type: in vivo, Conyza canadensis (L.) (Horseweed); details: Erigeron canadensis, post-emergence, 504 h, ERICA, postemergence, read-out: Control/Injury; for pest or weed control at 140 g/ha: rate 140 g ae/ha; for pest or weed control at 280 g/ha: rate 280 g ae/ha
Procedure: as §1, §2, §3
as §4, with “Conyza canadensis (L.), (ERICA), common name, Horseweed,” for “Ambrosia artemisiifolia (AMBEL), (common ragweed),”

[3] = tested on: Amaranthus palmeri (AMAPA); type: in vivo, Amaranthus palmeri (Palmer amaranth); details: post-emergence, 504 h, postemergence, read-out: Control/Injury; for pest or weed control at 140 g/ha: rate 140 g ae/ha; for pest or weed control at 280 g/ha: rate 280 g ae/ha
Procedure: as §1, §2, §3
as §4, with “Amaranthus palmeri (AMAPA), common name, Palmer amaranth,” for “Ambrosia artemisiifolia (AMBEL), (common ragweed),”

[4] = percent reduction vs untreated, 21 days after treatment
[5] = R-AMAPA, percent reduction vs untreated control, 21 days after treatment
[6] = percent reduction vs untreated control, 21 days after treatment

| Structure (SMILES) | pest or weed control at 140 g/ha [1] | pest or weed control at 280 g/ha [1] | pest or weed control at 140 g/ha (Amaranthus rudis (AMATA)) | pest or weed control at 280 g/ha (Amaranthus rudis (AMATA)) | pest or weed control at 140 g/ha (Kochia scoparia (KCHSC); [4]) | pest or weed control at 280 g/ha (Kochia scoparia (KCHSC); [4]) | pest or weed control at 140 g/ha [2] | pest or weed control at 280 g/ha [2] | pest or weed control at 140 g/ha ([3]; AMAPA) | pest or weed control at 280 g/ha ([3]; AMAPA) | pest or weed control at 140 g/ha [2, 4] | pest or weed control at 280 g/ha [2, 4] | pest or weed control at 140 g/ha [3, 5] | pest or weed control at 280 g/ha [3, 5] | pest or weed control at 140 g/ha (Kochia scoparia (KCHSC)) | pest or weed control at 280 g/ha (Kochia scoparia (KCHSC)) | pest or weed control at 140 g/ha [2, 6] | pest or weed control at 280 g/ha [2, 6] |
| --- | --- | --- | --- | --- | --- | --- | --- | --- | --- | --- | --- | --- | --- | --- | --- | --- | --- | --- |
| CCc1nnc(OC(=O)c2c(Cl)ccc(Cl)c2OC)s1 [Compound A-119] | 5% | 10% | 20% | 13% | 10% | 3% | 0% | 10% | 8% | 20% |  |  |  |  |  |  |  |  |
| COc1c(Cl)ccc(Cl)c1C(=O)Nc1ccon1 [Compound A-106] | 25% | 28% | 25% | 28% | 3% | 3% | 5% | 10% | 25% | 20% |  |  |  |  |  |  |  |  |
| COc1c(Cl)ccc(Cl)c1C(=O)n1nc(C)cc1C [Compound A-133] | 3% | 8% | 8% | 5% | 0% | 20% |  |  | 10% | 15% | 3% | 3% |  |  |  |  |  |  |
| COc1c(Cl)ccc(Cl)c1C(=O)O/N=C(\N)CCCCCC/C(N)=N/OC(=O)c1c(Cl)ccc(Cl)c1OC [Compound A-147] | 80% | 81% | 59% | 49% | 93% | 88% |  |  |  |  | 50% | 60% | 43% | 38% |  |  |  |  |
| COc1c(Cl)ccc(Cl)c1C(=O)O/N=C/c1cc(/C=N/OC(=O)c2c(Cl)ccc(Cl)c2OC)cc(/C=N/OC(=O)c2c(Cl)ccc(Cl)c2OC)c1 [Compound A-99] | 96% | 95% | 84% | 78% | 93% | 95% | 97% | 99% | 90% | 80% |  |  |  |  |  |  |  |  |
| COc1c(Cl)ccc(Cl)c1C(=O)O/N=C/c1ccccc1 [Compound A-70] | 78% | 97% | 52% | 77% |  |  |  |  |  |  |  |  | 72% | 78% | 73% | 88% | 87% | 93% |
| COc1c(Cl)ccc(Cl)c1C(=O)N1CCCCO1 [Compound A-104] | 5% | 15% | 73% | 92% | 3% | 13% | 0% | 10% | 45% | 65% |  |  |  |  |  |  |  |  |
| COc1c(Cl)ccc(Cl)c1C(=O)NN1CCOCC1 [Compound A-127] | 30% | 63% | 30% | 35% | 3% | 5% | 18% | 13% | 20% | 23% |  |  |  |  |  |  |  |  |
| COc1c(Cl)ccc(Cl)c1C(=O)O/N=C(\N)CCCC/C(N)=N/OC(=O)c1c(Cl)ccc(Cl)c1OC [Compound A-145] | 88% | 96% | 60% | 64% | 94% | 91% |  |  |  |  | 83% | 78% | 55% | 65% |  |  |  |  |
| COc1c(Cl)ccc(Cl)c1C(=O)O [Dicamba, 3,6-dichloro-2-methoxybenzoic acid, reference compound] | 97% | 100% | 99% | 90% | 94% | 97% | 94% | 100% | 78% | 94% |  |  |  |  |  |  |  |  |
